Measurements published in US6348456B1, “Method of treating chemical dependency in mammals and a composition therefor” (priority 1994, dated 2002).

Test: plasma concentration of ibogaine and its metabolite 12-hydroxy ibogamine over time after ibogaine administration to a human patient
Type: in vivo
Experimental: An amount of ibogaine was administered to a human patient, and the plasma concentration of both ibogaine and a metabolite thereof, 12-hydroxy ibogamine, were observed as a function of time.
FIG. 1 illustrates the result of administering a certain dosage of ibogaine to a human patient, where the plasma concentration of ibogaine is measured over time. In essence, a peak plasma concentration of about 1,100 ng/ml is observed at administration. It is also notable that at about 11 hours after ibogaine administration, plasma concentration of ibogaine diminished to less than 400 ng/ml. After about 24 hours, plasma concentration diminished to less than 200 ng/ml. Thus, ibogaine is rather quickly eliminated by the patient.
By contrast, FIG. 2 illustrates the variation of noribogaine plasma concentration with time as a metabolite from the same ibogaine administration described above. In essence, a peak plasma concentration of noribogaine of about 590 ng/ml was reached only after about 11 hours from administration. Thereafter, even at 24 hours, a plasma concentration of greater than 500 ng/ml was observed.

SMILES | plasma half-life compared with ibogaine (after ibogaine administration) | plasma concentration of noribogaine (at 24 hours, metabolite after ibogaine administration) | time from administration to peak plasma concentration of noribogaine (noribogaine as metabolite after ibogaine administration) | peak plasma concentration of noribogaine (noribogaine as metabolite from the same ibogaine administration (FIG. 2)) | plasma concentration of ibogaine (after about 24 hours) | plasma concentration of ibogaine (at about 11 hours after ibogaine administration) | peak plasma concentration of ibogaine (ibogaine administered, (FIG. 1))
CC[C@H]1C[C@H]2C[C@H]3c4[nH]c5ccc(O)cc5c4CCN(C2)[C@@H]13 [noribogaine, 12-hydroxy ibogamine] | much longer plasma half-life than ibogaine | greater than 500 ng/ml | about 11 hours | about 590 ng/ml |  |  | 
CC[C@H]1CC2C[C@H]3c4[nH]c5ccc(OC)cc5c4CCN(C2)C13 [ibogaine, reference compound] |  |  |  |  | less than 200 ng/ml | less than 400 ng/ml | about 1,100 ng/ml
